Reference: patent US20040029823A1, “Antisense oligonucleotide compositions and methods for the modulation of JNK proteins” (priority 1997, published 2004)
Strand notation (5' to 3'): a small letter for the sugar, then the base; units joined by * are phosphorothioate-linked, units joined directly phosphodiester-linked; [ ] holds rarer units or linkages, { } end groups; capitals alone tell only the bases. d = 2'-deoxy (DNA)

What was measured:
JNK1 mRNA = experiment: Northern assay of JNK1 mRNA expression in A549 cells; assay type: cell-based, human; details: for % EXPRESSION: relative to LIPOFECTIN-only control; for Normalized % Control: JNK1 mRNA dose response
Experimental: (§1) In order to evaluate the activity of potential JNK-modulating oligonucleotides, human lung carcinoma cell line A549 (American Type Culture Collection, Rockville, Md. No. ATCC CCL-185) cells or other cell lines as indicated in the Examples, were grown and treated with oligonucleotides or control solutions as detailed below. After harvesting, cellular extracts were prepared and examined for specific JNK mRNA levels or JNK protein levels (i.e., Northern or Western assays, respectively). In all cases, “% expression” refers to the amount of JNK-specific signal in an oligonucleotide-treated cell relative to an untreated cell (or a cell treated with a control solution that lacks oligonucleotide), and “% inhibition” is calculated as
(§2) 100%−% Expression =% Inhibition.
(§3) Northern Assays: The mRNA expression of each JNK protein was determined by using a nucleic acid probe specifically hybridizable thereto. Nucleic acid probes specific for JNK1, JNK2 and JNK3 are described in Examples 3, 4 and 5, respectively. The probes were radiolabelled by means well known in the art (see, e.g., Short Protocols in Molecular Biology, 2nd Ed., Ausubel et al., Eds., John Wiley & Sons, New York, 1992, pages 3-11 to 2-3-44 and 4-17 to 4-18; Ruth, Chapter 6 In: Methods in Molecular Biology, Vol. 26: Protocols for Oligonucleotide Conjugates, Agrawal, ed., Humana Press Inc., Totowa, N.J., 1994, pages 167-185; and Chapter 10 In: Molecular Cloning: A Laboratory Manual, 2nd Ed., Sambrook et al., Eds., pages 10.1-10.70). The blots were stripped and reprobed with a ^32P-labeled glyceraldehyde 3-phosphate dehydrogenase (G3PDH) probe (Clontech Laboratories, Inc., Palo Alto, Calif.) in order to confirm equal loading of RNA and to allow the levels of JNK transcripts to be normalized with regard to the G3PDH signals.
(§4) A549 cells were grown in T-75 flasks until 80-90% confluent. At this time, the cells were washed twice with 10 mL of media (DMEM), followed by the addition of 5 mL of DMEM containing 20 μg/mL of LIPOFECTIN™ (i.e., 1:1 (w/w) DOTMA/DOPE, Life Technologies, Gaithersburg, Md.; DOTMA=N-[1-(2,3-dioleyoxy)propyl]-N,N,N-trimethylammonium chloride; DOPE=dioleoyl phosphatidylethanolamine). The oligonucleotides were added from a 10 μM stock solution to a final concentration of 400 nM, and the two solutions were mixed by swirling the flasks. As a control, cells were treated with LIPOFECTIN™ without oligonucleotide under the same conditions and for the same times as the oligonucleotide-treated samples. After 4 hours at 37° C., the medium was replaced with fresh DMEM containing 10% serum. The cells were allowed to recover for 18 hours. Total cellular RNA was then extracted in guanidinium, subject to gel electrophoresis and transferred to a filter according to techniques known in the art (see, e.g., Chapter 7 In: Molecular Cloning: A Laboratory Manual, 2nd Ed., Sambrook et al., Eds., pages 7.1-7.87, and Short Protocols in Molecular Biology, 2nd Ed., Ausubel et al., Eds., John Wiley & Sons, New York, 1992, pages 2-24 to 2-30 and 4-14 to 4-29). Filters were typically hybridized overnight to a probe specific for the particular JNK gene of interest in hybridization buffer (25 mM KPO4, pH 7.4; 5×SSC; 5× Denhardt's solution, 100 μg/ml Salmon sperm DNA and 50% formamide) (Alahari et al., Nucl. Acids Res., 1993, 21, 4079). This was followed by two washes with 1×SSC, 0.1% SDS and two washes with 0.25×SSC, 0.1% SDS. Hybridizing bands were visualized by exposure to X-OMAT AR film and quantitated using a PHOSPHORIMAGER™ essentially according to the manufacturer's instructions (Molecular Dynamics, Sunnyvale, Calif.)
B. JNK1-specific probes: In initial screenings of a set of oligonucleotides derived from the JNK1 sequence (Table 2) for biological activity, a cDNA clone of JNK1 (Derijard et al., Cell, 1994, 76, 1025) was radiolabeled and used as a JNK1-specific probe in Northern blots. […]

JNK2 mRNA = experiment: Northern assay of JNK2 mRNA expression in A549 cells; assay type: cell-based, human; details: JNK2 mRNA, A549 cells, 400 nM oligonucleotide, relative to LIPOFECTIN-only control
Experimental: as §1, §2, §3, §4
B. JNK2-specific probes: In initial screenings of a set of oligonucleotides derived from the JNK2 sequence (Table 9) for biological activity, a cDNA clone of JNK2 (Kallunki et al., Genes & Development, 1994, 8, 2996) was radiolabeled and used as a JNK2-specific probe in Northern blots. […]

[1] = JNK1 mRNA, A549 cells, 400 nM oligonucleotide
[2] = JNK1 mRNA, A549 cells, 400 nM oligonucleotide, 100% - % expression

Row | Substance | % EXPRESSION (JNK1 mRNA; [1]) | % INHIBITION (JNK1 mRNA; [2]) | other results
1 | 11978 (antisense ATTCTTTCCACTCTTCTATT; DNA, all phosphorothioate, methylation of C not given here) [compound 11978] | 85% | 15% | 
2 | 11979 (antisense CTCCTCCAAGTCCATAACTT; DNA, all phosphorothioate, methylation of C not given here) [compound 11979] | 90% | 10% | 
3 | 11980 (antisense CCCGTATAACTCCATTCTTG; DNA, all phosphorothioate, methylation of C not given here) [compound 11980] | 85% | 15% | 
4 | 11981 (antisense CTGTGCTAAAGGAGAGGGCT; DNA, all phosphorothioate, methylation of C not given here) [compound 11981] | 62% | 28% | 
5 | 11982 (antisense ATGATGGATGCTGAGAGCCA; DNA, all phosphorothioate, methylation of C not given here) [compound 11982] | 13% |  | 
6 | 11983 (antisense GTTGACATTGAAGACACATC; DNA, all phosphorothioate, methylation of C not given here) [compound 11983] | 40% |  | 
7 | 11984 (antisense CTGTATCAGAGGCCAAAGTC; DNA, all phosphorothioate, methylation of C not given here) [compound 11984] | 53% | 47% | 
8 | 11985 (antisense TGCTGCTTCTAGACTGCTGT; DNA, all phosphorothioate, methylation of C not given here) [compound 11985] | 47% |  | 
9 | 11986 (antisense AGTCATCTACAGCAGCCCAG; DNA, all phosphorothioate, methylation of C not given here) [compound 11986] | 90% | 10% | 
10 | 11987 (antisense CCATCCCTCCCACCCCCCGA; DNA, all phosphorothioate, methylation of C not given here) [compound 11987] | 47% |  | 
11 | 11988 (antisense ATCAATGACTAACCGACTCC; DNA, all phosphorothioate, methylation of C not given here) [compound 11988] | 78% | 22% | 
12 | 11989 (antisense CAAAAATAAGACCACTGAAT; DNA, all phosphorothioate, methylation of C not given here) [compound 11989] | 60% | 40% | 
13 | 12463 (antisense CACGCTTGCTTCTGCTCATG; DNA, all phosphorothioate, methylation of C not given here) [compound 12463] | 23% |  | 
14 | 12464 (antisense CGGCTTAGCTTCTTGATTGC; DNA, all phosphorothioate, methylation of C not given here) [compound 12464] | 18% |  | 
15 | 12538 (antisense CCCGCTTGGCATGAGTCTGA; chemistry not fully specified) [compound 12538] | 33% |  | 
16 | 12548 (antisense ATTTGCATCCATGAGCTCCA; DNA, all phosphorothioate, methylation of C not given here) [compound 12548] | 5% |  | 
17 | 12549 (antisense CGTTCCTGCAGTCCTGGCCA; DNA, all phosphorothioate, methylation of C not given here) [compound 12549] | 28% |  | 
18 | 12550 (antisense GGATGACCTCGGGTGCTCTG; DNA, all phosphorothioate, methylation of C not given here) [compound 12550] | 40% |  | 
19 | 12551 (antisense CCCATAATGCACCCCACAGA; DNA, all phosphorothioate, methylation of C not given here) [compound 12551] | 52% | 48% | 
20 | 12552 (antisense CGGGTGTTGGAGAGCTTCAT; DNA, all phosphorothioate, methylation of C not given here) [compound 12552] | 34% |  | 
21 | 12553 (antisense TTTGGTGGTGGAGCTTCTGC; DNA, all phosphorothioate, methylation of C not given here) [compound 12553] | 25% |  | 
22 | 12554 (antisense GGCTGCCCCCGTATAACTCC; DNA, all phosphorothioate, methylation of C not given here) [compound 12554] | 11% |  | 
23 | 12555 (antisense TGCTAAAGGAGAGGGCTGCC; DNA, all phosphorothioate, methylation of C not given here) [compound 12555] | 27% |  | 
24 | 12556 (antisense AGGCCAAAGTCGGATCTGTT; DNA, all phosphorothioate, methylation of C not given here) [compound 12556] | 41% |  | 
25 | 12557 (antisense CCACCCCCCGATGGCCCAAG; DNA, all phosphorothioate, methylation of C not given here) [compound 12557] | 29% |  | 
26 | 12558 (antisense dG*dT*dT*dT*dC*dA*dG*dA*dT*dC*dC*dC*dT*dC*dG*dC*dC*dC*dG*dC) [compound 12558] |  |  | % EXPRESSION (JNK2 mRNA): 15%
27 | 12559 (antisense dT*dG*dC*dA*dG*dC*dA*dC*dA*dA*dA*dC*dA*dA*dT*dC*dC*dC*dT*dT) [compound 12559] |  |  | % EXPRESSION (JNK2 mRNA): 28%
28 | 14320 (sense CCAAGCGGGCCTACAGAGAG; DNA, all phosphorothioate, methylation of C not given here) [compound 14320] |  |  | Normalized % Control (JNK1 mRNA; 50 nM): 103.6%; Normalized % Control (JNK1 mRNA; 100 nM): 76.3%; Normalized % Control (JNK1 mRNA; 200 nM): 98.9%; Normalized % Control (JNK1 mRNA; 400 nM): 97.1%
29 | 14321 (CTTTCCGTTGGACCCCTGGG; DNA, all phosphorothioate, methylation of C not given here) [compound 14321] |  |  | Normalized % Control (JNK1 mRNA; 50 nM): 91.8%; Normalized % Control (JNK1 mRNA; 100 nM): 94.1%; Normalized % Control (JNK1 mRNA; 200 nM): 100.2%; Normalized % Control (JNK1 mRNA; 400 nM): 79.2%
30 | CTC-TCT-GTA-GGC-CCG-CTT-GG (CTCTCTGTAGGCCCGCTTGG; chemistry not given here) [ISIS 12539] |  |  | % INHIBITION (JNK1 mRNA; JNK1 mRNA time course, t=0 h after 4 hour treatment): greater than 85%; % INHIBITION (JNK1 mRNA; JNK1 mRNA time course, t=4 h): about 95%; % INHIBITION (JNK1 mRNA; JNK1 mRNA time course, t=12 h): greater than or equal to 80%; % INHIBITION (JNK1 mRNA; JNK1 mRNA time course, t=48 h): greater than or equal to 80%; % INHIBITION (JNK1 mRNA; JNK1 mRNA time course, time 272 h [sic] (t=72 h in text)): ≥ 60%
